Assay results from US11440909B2, “10H-phenothiazine ferroptosis inhibitor as well as the preparative method and the use thereof” (CHENGDU HENGHAO INVESTMENT CO. LIMITED, priority 2018, dated 2022).
Where two headings read alike, the source gives them in different places.

What was measured:
[1] = system: rat middle cerebral artery occlusion (MCAO) stroke model; test: Rat middle cerebral artery occlusion (MCAO) stroke model, different doses; assay type: in vivo; conditions: positive drug butylphthalide 10 mg/kg
Experimental: By rat middle cerebral artery occlusion (MCAO) stroke model (also called cerebral ischemia model), the therapeutic effect of the compound of the present invention on ischemic stroke in SD rats at different doses was studied. Male SD rats were selected and induced anesthesia by 2-3.0% isoflurane. The middle cerebral artery was blocked by the thread plug method, resulting in rat ischemia model; the ischemic rats were placed at room temperature and kept their body temperature being 37° C. 60 minutes after ischemia onset, the rats were scored by Bederson neurobehavioral scale to determine whether the model was successfully made. 90 min after ischemia onset, the thread plug was pulled out for reperfusion. […] After 24 h of reperfusion, the animals were scored by NSS scale to evaluate neurological deficit. And then the animals were dissected, brains were collected and subjected to TTC stain. […] The percentage of the weight of the infarct tissue based on the weight of the whole brain was regarded as the infarct range (%), and the inhibition rate (%) of each drug treatment group was calculated based on the infarct range.

[2] = system: fibrosarcoma cell line HT1080; test: Ferroptosis screening model (MTT method), Erastin-induced ferroptosis; assay type: cell-based, human; conditions: HT1080, ferroptosis inducer Erastin, 72 h, average of three tests, read-out: EC50
Outline: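 HT1080 cells adhered 24 h, then received compound plus Erastin ([…] final) for 72 h at 37 °C, 5% CO2, in triplicate. Viability by MTT with SDS solubilisation, absorbance at 570 nm; inhibition of ferroptosis fitted to give EC50.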

Compound | EC50 ([2]; Homo sapiens, HT-1080, 72 h) [nM] | further results
CCCCC1OC(=O)c2ccccc21 (stereo not drawn) [Positive drug, butylphthalide, reference compound] |  | NSS score ([1]; after 24 h of reperfusion): 8.500 ± 1.401; Infarct weight ([1]; tail vein injection, 24 h of reperfusion, TTC stain): 0.193 ± 0.075 g; Infarct range ([1]; infarct tissue weight as % of whole brain weight): 13.292 ± 4.476 %; Inhibition rate of cerebral infarction ([1]; versus model group infarct range): 24.477%
CC(c1ccc2c(c1)Nc1ccccc1S2)S(=O)(=O)N1CC[C@H](NC(=O)OC(C)(C)C)C1 (stereo partly drawn) [Compound C31, t-butyl ((3S)-1-((1-(10H-phenothiazin-2-yl)ethyl)sulfonyl)pyrrolin-3-yl)carbamate] | 399 | 
CC(c1ccc2c(c1)Nc1ccccc1S2)c1ccc(F)c(OCc2ccccc2)c1 (stereo not drawn) [Compound A55, 2-(1-(3-(benzyloxyl)-4-fluorophenyl)ethyl)-10H-phenothiazine] | 59 | 
CC(c1ccc2c(c1)Nc1ccccc1S2)S(=O)(=O)N1CCN(C(c2ccccc2)c2ccccc2)CC1 (stereo not drawn) [Compound C26, 2-(1-((4-diphenylmethylpiperazin-1-yl)sulfonyl)ethyl)-10H-phenothiazine] | 388 | 
Cc1ccc(C(C)c2ccc3c(c2)Nc2ccccc2S3)cc1[N+](=O)[O-] (stereo not drawn) [Compound A52, 2-(1-(4-methyl-3-nitrophenyl)ethyl)-10H-phenothiazine] | 13 | 
C=C(c1ccc(NC(C)=O)nc1)c1ccc2c(c1)Nc1ccccc1S2 [Compound B43, N-(5-(1-(10H-phenothiazin-2-yl)ethenyl)pyridin-2-yl)acetylamine] | 4 | 
CC(c1ccccc1)c1ccc2c(c1)Nc1ccccc1S2 (stereo not drawn) [Compound A1, 2-(1-phenylethyl)-10H-phenothiazine] |  | EC50 [2]: 3 nM
CCOC(=O)C1CCN(S(=O)(=O)C(C)c2ccc3c(c2)Nc2ccccc2S3)CC1 (stereo not drawn) [Compound C23] | 620 | 
CC(c1ccc2c(c1)Nc1ccccc1S2)S(=O)(=O)N1CCN(Cc2ccc3c(c2)OCO3)CC1 (stereo not drawn) [Compound C5, 2-(1-((4-(benzo[d][1,3]dioxa-5-ylmethyl)piperazin-1-yl)sulfonyl)ethyl)-10H-phenothiazine] | 35 | 
CC(c1ccc(Cl)c(F)c1)c1ccc2c(c1)Nc1ccccc1S2 (stereo not drawn) [Compound A44, 2-(1-(4-chloro-3-fluorophenyl)ethyl)-10H-phenothiazine] | 19 | 
CC(c1cccc(C(=O)OC(C)(C)C)c1)c1ccc2c(c1)Nc1ccccc1S2 (stereo not drawn) [Compound A15, 3-(1-(10H-phenothiazin-2-yl)ethyl)benzoic acid t-butyl ester] | 17 | 
COc1cccc(N2CCN(S(=O)(=O)C(C)c3ccc4c(c3)Nc3ccccc3S4)CC2)c1 (stereo not drawn) [Compound C54, 2-(1-((4-(3-methoxylphenyl)piperazin-1-yl)sulfonyl)ethyl)-10H-phenothiazine] | 165 | 
CCOC(=O)[C@@H]1CCCN(S(=O)(=O)C(C)c2ccc3c(c2)Nc2ccccc2S3)C1 (stereo partly drawn) [Compound C39, ethyl (3R)-1-((1-(10H-phenothiazin-2-yl)ethyl)sulfonyl)piperidin-3-formate] | 244 | 
Cc1cccc(C(C)c2ccc3c(c2)Nc2ccccc2S3)c1 (stereo not drawn) [Compound A8, 2-(1-(m-methylphenyl)ethyl)-10H-phenothiazine] | 5 | 
CC(c1ccc2c(c1)Nc1ccccc1S2)S(=O)(=O)N1CCC(O)CC1 (stereo not drawn) [Compound C18, 1-((1-(10H-phenothiazin-2-yl)ethyl)sulfonyl)-4-piperidinol] | 79 | 
CC(c1ccc2c(c1)Nc1ccccc1S2)c1ccc2ccccc2c1 (stereo not drawn) [Compound A68, 2-(1-(naphthalen-2-yl)ethyl)-10H-phenothiazine] | 5 | 
CC(c1ccc2c(c1)Nc1ccccc1S2)S(=O)(=O)N1CCC[C@H](NC(=O)OC(C)(C)C)C1 (stereo partly drawn) [Compound C29, t-butyl ((3S)-1-((1-(10H-phenothiazin-2-yl)ethyl)sulfonyl)piperidin-3-yl) carbamate] | 228 | 
CC(c1ccc2c(c1)Nc1ccccc1S2)S(=O)(=O)N1CCN(c2ccc([N+](=O)[O-])cc2)CC1 (stereo not drawn) [Compound C55, 2-(1-((4-(4-nitrophenyl)piperazin-1-yl)sulfonyl)ethyl)-10H-phenothiazine] | 70 | 
CC(c1ccc2c(c1)CCO2)c1ccc2c(c1)Nc1ccccc1S2 (stereo not drawn) [Compound A72, 2-(1-(2,3-dihydrobenzofuran-5-yl)ethyl)-10H-phenothiazine] | 14 | 
CCOC(=O)c1cccc(C(C)c2ccc3c(c2)Nc2ccccc2S3)c1 (stereo not drawn) [Compound A14, 3-(1-(10H-phenothiazin-2-yl)ethyl)benzoic acid ethyl ester] | 5 | 
C=C(c1ccc(C)cc1)c1ccc2c(c1)Nc1ccccc1S2 [Compound B6, 2-(1-(p-methylphenyl)ethenyl)-10H-phenothiazine] | 45 | 
C=C(c1ccc2c(c1)Nc1ccccc1S2)c1ccc(C(=O)Nc2ccc(CN3CCN(C)CC3)c(C(F)(F)F)c2)cc1C [Compound B46, 4-(1-(10H-phenothiazin-2-yl)ethenyl)-3-methyl-N-(4-((4-methylpiperazin-1-yl)methyl)-3-(trifluoromethyl)phenyl)benzamide] | 10 | 

The next lines start with results.

EC50 ([2]; Homo sapiens, HT-1080, 72 h) [nM] | Compound | further results
18 | CCOc1ccc2cc(C(C)c3ccc4c(c3)Nc3ccccc3S4)ccc2c1 (stereo not drawn) [Compound A70, 2-(1-(6-ethoxylnaphthalen-2-yl)ethyl)-10H-phenothiazine] | 
17 | CC(c1ccc2c(c1)Nc1ccccc1S2)c1ccc(Cl)c(C(F)(F)F)c1 (stereo not drawn) [Compound A43, 2-(1-(4-chloro-3-(trifluoromethyl)phenyl)ethyl)-10H-phenothiazine] | 
11 | C=C(c1ccc(C(F)(F)F)cc1)c1ccc2c(c1)Nc1ccccc1S2 [Compound B3, 2-(1-(4-(trifluoromethyl)phenyl)ethenyl)-10H-phenothiazine] | 
76 | CC(c1ccc2c(c1)Nc1ccccc1S2)S(=O)(=O)N1CCN(CCN2CCOCC2)CC1 (stereo not drawn) [Compound C12, 4-(2-(4-((1-(10H-phenothiazin-2-yl)ethyl)sulfonyl)piperazin-1-yl)ethyl)morpholine] | 
19 | COc1ccc(C(C)c2ccc3c(c2)Nc2ccccc2S3)cc1C (stereo not drawn) [Compound A49, 2-(1-(4-methoxyl-3-methylphenyl)ethyl)-10H-phenothiazine] | 
323 | CC(c1ccc(N(c2ccccc2)c2ccccc2)cc1)c1ccc2c(c1)Nc1ccccc1S2 (stereo not drawn) [Compound A37, 4-(1-(10H-phenothiazin-2-yl)ethyl)-N,N-diphenylphenylamine] | 
5 | CC(c1cncc(C#N)c1)c1ccc2c(c1)Nc1ccccc1S2 (stereo not drawn) [Compound A73, 5-(1-(10H-phenothiazin-2-yl)ethyl)nicotinonitrile] | 
15 | CC(c1ccc(Cl)cc1)c1ccc2c(c1)Nc1ccccc1S2 (stereo not drawn) [Compound A20, 2-(1-(4-chlorophenyl)ethyl)-10H-phenothiazine] | 
12 | CC(C)c1cccc(C(C)c2ccc3c(c2)Nc2ccccc2S3)c1 (stereo not drawn) [Compound A10, 2-(1-(3-isopropylphenyl)ethyl)-10H-phenothiazine] | 
29 | C=C(c1ccc(CCCC)cc1)c1ccc2c(c1)Nc1ccccc1S2 [Compound B7, 2-(1-(4-butylphenyl)ethenyl)-10H-phenothiazine] | 
80 | C=C(c1ccc(OC(F)(F)F)cc1)c1ccc2c(c1)Nc1ccccc1S2 [Compound B5, 2-(1-(4-trifluoromethoxylphenyl)ethenyl)-10H-phenothiazine] | 
1 | CC(c1cccc(N)c1)c1ccc2c(c1)Nc1ccccc1S2 (stereo not drawn) [Compound A7, 3-(1-(10H-phenothiazin-2-yl)ethyl)phenylamine] | 
70 | CC(c1cccc(-c2ccccc2)c1)c1ccc2c(c1)Nc1ccccc1S2 (stereo not drawn) [Compound A18, 2-(1-([1,1′-diphenyl]-3-yl)ethyl)-10H-phenothiazine] | 
20 | Cc1cc(C)cc(C(C)c2ccc3c(c2)Nc2ccccc2S3)c1 (stereo not drawn) [Compound A59, 2-(1-(3,5-dimethylphenyl)ethyl)-10H-phenothiazine] | 
20 | COC(=O)c1ccc(C(C)c2ccc3c(c2)Nc2ccccc2S3)cc1Cl (stereo not drawn) [Compound A53, 4-(1-(10H-phenothiazin-2-yl)ethyl)-2-chlorobenzoic acid methyl ester] | 
426 | CC(c1ccc2c(c1)Nc1ccccc1S2)S(=O)(=O)N1C[C@@H](C)O[C@@H](C)C1 (stereo partly drawn) [Compound C44, (2S,6R)-4-((1-(10H-phenothiazin-2-yl)ethyl)sulfonyl)-2,6-dimethylmorpholine] | 
40 | C=C(c1ccc(CC(C)C)cc1)c1ccc2c(c1)Nc1ccccc1S2 [Compound B12, 2-(1-(4-isobutylphenyl)ethenyl)-10H-phenothiazine] | 
